From patent publication US20250346556A1, “IMPROVEMENTS IN OR RELATING TO ORGANIC COMPOUNDS” (Givaudan SA, priority 2019, published 2025) come the findings set out here.

The structures appear in SMILES notation.

Assay type in all cases: in vivo
Test [1] is described as follows: Taste evaluation of amide ester analogues by four experienced tasters. The note with it: 20 ppm in aqueous NaCl (0.5% by weight) and MSG (0.05% by weight). On the procedure:
An aqueous solution of NaCl (0.5% by weight) and MSG (0.05% by weight) was prepared. To this base was added: • a) 20 ppm of the mixture of the compound (Id+Ie) in a ratio 1:2 (sample 8a); • b) 20 ppm of the compound If (sample 8b).
A group of four experienced tasters compared the samples 8a and 8b with the pure base.

Test [2] in a line: Taste evaluation, comparison with further derivatives, by 5 trained panellists. The note with it: 20 ppm in aqueous NaCl solution (0.5% by weight); compared with 20 ppm compound Ia. On the procedure:
An aqueous NaCl solution (0.5% by weight) was prepared. To this base was added: • a) 20 ppm of the compound Ia (sample 7a); • b) 20 ppm of the compound Ib (sample 7b); • c) 20 ppm of the compound Ic (sample 7c).
The tastes of the three samples 7a, 7b and 7c have been evaluated by 5 trained panellists.

The nature of test [3]: Taste evaluation, comparison with MSG, by 5 trained panellists. On the procedure: An aqueous NaCl solution (0.5% by weight) was prepared. To this base was added: • a) 30 ppm of the compound Ia (sample 6a); • b) 200 ppm of MSG (sample 6b, benchmark).
The tastes of the two samples 6a and 6b have been evaluated by 5 trained panellists. They were asked to rate the intensity of sample 6a as difference to sample 6b and to describe the overall effect. Typically, the following descriptors are used to describe the effect: umami, salty, bitter, overall sweet.

On to `C/C=C(\C)C(=O)NCCCCOC(=O)C=Cc1ccccc1` [compound If, 4-((E)-2-methylbut-2-enamido)butyl cinnamate], for which, in test [1], the additional taste description result is given as “a pleasant taste experience”. Moreover, in test [1] (four tasters, unanimous), the “umami compared with the pure base” value was “more umami than the base”. For the compound `C/C=C(\C)C(=O)NCCCCNC(=O)/C=C/c1ccc(OC)cc1` [compound Ib, (E)-N-(4-((E)-3-(4-methoxyphenyl)acrylamido)butyl)-2-methylbut-2-enamide], in test [2], the “taste description in comparison to sample 7a” value was “more umami, stronger and more lingering, more sweet, but having an off note, animalic, floral sweet”. As for `C/C=C(\C)C(=O)NCCCCNC(=O)c1ccc(OC)cc1` [compound Ic, (E)-4-methoxy-N-(4-(2-methylbut-2-enamido)butyl)benzamide], the “taste description in comparison to sample 7a” value in test [2] is “more umami and cleaner umami than sample 7a”. Take `C/C=C(\C)C(=O)NCCCCNC(=O)C=Cc1ccccc1` [compound Ia, (E)-N-(4-cinnamamidobutyl)-2-methylbut-2-enamide]: the overall preference result in test [3] (30 ppm in 0.5% NaCl versus 200 ppm MSG (sample 6b)) is given as “preferred over sample 6b”. Further, in test [3] (30 ppm in 0.5% NaCl versus 200 ppm MSG (sample 6b, benchmark)), the “umami on bitter level versus benchmark” value was “a little higher than benchmark”. Also, in test [3] (30 ppm in aqueous NaCl solution (0.5% by weight), 5 trained panellists), the taste description entry is “umami, brothy and longlasting”.
